We go through 29 compounds from US8614327B2 (Vertex Pharmaceuticals Incorporated, priority 2004, dated 2013).

In this assay the target is T1, ΔF508-CFTR (Homo sapiens, UniProt P13569, DEL508-508).
T1 construct: expressed in transfected cells
As to the kind of experiment: Membrane potential optical (FRET/VIPR) assay, identification of potentiator compounds. In kind it is cell-based. The following applies: Table 3, assay not given; for % Activity: relative efficacy. From the text:
I) Membrane Potential Optical Methods for Assaying ΔF508-CFTR Modulation Properties of Compounds The optical membrane potential assay utilized voltage-sensitive FRET sensors described by Gonzalez and Tsien (See, Gonzalez, J. E. and R. Y. Tsien (1995) “Voltage sensing by fluorescence resonance energy transfer in single cells” Biophys J 69(4): 1272-80, and Gonzalez, J. E. and R. Y. Tsien (1997) “Improved indicators of cell membrane potential that use fluorescence resonance energy transfer” Chem Biol 4(4): 269-77) in combination with instrumentation for measuring fluorescence changes such as the Voltage/Ion Probe Reader (VIPR) (See, […]. Oades, et al. (1999) “Cell-based assays and instrumentation for screening ion-channel targets” Drug Discov Today 4(9): 431-439). These voltage sensitive assays are based on the change in fluorescence resonant energy transfer (FRET) between the membrane-soluble, voltage-sensitive dye, DiSBAC2(3), and a fluorescent phospholipid, CC2-DMPE, which is attached to the outer leaflet of the plasma membrane and acts as a FRET donor. Changes in membrane potential (Vm) cause the negatively charged DiSBAC2(3) to redistribute across the plasma membrane and the amount of energy transfer from CC2-DMPE changes accordingly. The changes in fluorescence emission were monitored using VIPR which is an integrated liquid handler and fluorescent detector designed to conduct cell-based screens in 96- or 384-well microtiter plates. To identify potentiators of ΔF508-CFTR, a double-addition HTS assay format was developed. During the first addition, a Cl^--free medium with or without test compound was added to each well. […] (in mM) NaCl 160, KCl 4.5, CaCl2 2, MgCl2 1, HEPES 10, pH 7.4 with NaOH. • Chloride-free bath solution: Chloride salts in Bath Solution #1 are substituted with gluconate salts. • CC2-DMPE: Prepared as a 10 mM stock solution in DMSO and stored at -20° C. • DiSBAC2(3): Prepared as a 10 mM stock in DMSO and stored at -20° C. NIH3T3 mouse fibroblasts stably expressing ΔF508-CFTR are used for optical measurements of membrane potential. […] For all optical assays, the cells were seeded at 30,000/well in 384-well matrigel-coated plates and cultured for 2 hrs at 37° C. before culturing at 27° C. for 24 hrs. for the potentiator assay.

T1 sequence (P13569 with tags, fused parts or gaps DEL508-508): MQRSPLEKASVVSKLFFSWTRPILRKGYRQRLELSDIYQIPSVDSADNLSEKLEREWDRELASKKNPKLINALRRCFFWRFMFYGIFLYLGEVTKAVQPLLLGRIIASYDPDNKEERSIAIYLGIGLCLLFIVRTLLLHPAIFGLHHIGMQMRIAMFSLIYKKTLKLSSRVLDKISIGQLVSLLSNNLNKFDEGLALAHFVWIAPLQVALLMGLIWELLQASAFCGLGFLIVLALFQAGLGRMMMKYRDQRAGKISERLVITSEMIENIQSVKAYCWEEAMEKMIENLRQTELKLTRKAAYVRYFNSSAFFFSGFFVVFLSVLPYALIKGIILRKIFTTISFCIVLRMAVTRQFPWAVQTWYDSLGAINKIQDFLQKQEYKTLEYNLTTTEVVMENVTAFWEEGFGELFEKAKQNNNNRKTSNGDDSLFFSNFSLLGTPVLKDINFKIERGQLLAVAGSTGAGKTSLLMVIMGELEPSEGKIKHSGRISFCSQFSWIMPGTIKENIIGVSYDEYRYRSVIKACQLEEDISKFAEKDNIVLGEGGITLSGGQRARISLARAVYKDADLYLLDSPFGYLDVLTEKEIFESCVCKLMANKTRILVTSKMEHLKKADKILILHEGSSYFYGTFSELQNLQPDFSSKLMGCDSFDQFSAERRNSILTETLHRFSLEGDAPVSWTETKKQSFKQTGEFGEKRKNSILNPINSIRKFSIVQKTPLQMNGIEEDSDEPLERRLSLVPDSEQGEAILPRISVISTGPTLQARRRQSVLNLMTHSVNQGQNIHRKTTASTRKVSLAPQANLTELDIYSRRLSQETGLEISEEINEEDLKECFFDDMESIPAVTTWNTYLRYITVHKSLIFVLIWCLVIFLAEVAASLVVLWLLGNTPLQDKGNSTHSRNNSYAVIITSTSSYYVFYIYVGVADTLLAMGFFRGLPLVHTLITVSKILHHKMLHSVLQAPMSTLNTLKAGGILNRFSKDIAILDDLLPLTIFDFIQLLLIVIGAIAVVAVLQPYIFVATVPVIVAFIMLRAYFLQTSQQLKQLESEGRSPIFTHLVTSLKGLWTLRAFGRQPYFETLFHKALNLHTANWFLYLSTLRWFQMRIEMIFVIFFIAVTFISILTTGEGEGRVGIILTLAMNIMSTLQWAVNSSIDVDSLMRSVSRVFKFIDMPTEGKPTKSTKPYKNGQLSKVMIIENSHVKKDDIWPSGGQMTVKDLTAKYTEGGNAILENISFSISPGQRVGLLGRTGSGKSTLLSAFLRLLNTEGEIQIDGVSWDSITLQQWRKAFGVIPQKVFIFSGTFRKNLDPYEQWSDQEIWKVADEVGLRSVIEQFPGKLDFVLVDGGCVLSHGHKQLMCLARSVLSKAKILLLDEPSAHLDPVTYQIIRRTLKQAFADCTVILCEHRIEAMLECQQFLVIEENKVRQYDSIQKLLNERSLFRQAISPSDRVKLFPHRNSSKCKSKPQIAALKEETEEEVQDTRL

Turning to `COc1ccc(Cl)cc1-c1cc2cc[nH]c2cc1NC(=O)c1c[nH]c2ccccc2c1=O` [Compound 1, N-[5-(5-chloro-2-methoxy-phenyl)-1H-indol-6-yl]-4-oxo-1H-quinoline-3-carboxamide], the EC50 (as a rule, the concentration that produces a half-maximal response) is less than 10 µM and the “% Activity” value is “++ (between 25% to 100%)”.

Turning to `COc1cc(NC(=O)c2c[nH]c3ccccc3c2=O)ccc1C(C)(C)C` [Compound 2, N-(3-methoxy-4-tert-butyl-phenyl)-4-oxo-1H-quinoline-3-carboxamide], the EC50 was less than 10 µM and the “% Activity” value is listed as “++ (between 25% to 100%)”.

Regarding `COc1ccccc1Oc1ccc(C(F)(F)F)cc1NC(=O)c1c[nH]c2ccccc2c1=O` [Compound 3, N-[2-(2-methoxyphenoxy)-5-(trifluoromethyl)phenyl]-4-oxo-1H-quinoline-3-carboxamide], the EC50 was less than 10 µM and the “% Activity” value is given as “++ (between 25% to 100%)”.

Take `O=C(Nc1ccccc1N1CCOCC1)c1c[nH]c2ccccc2c1=O` [Compound 4, N-(2-morpholinophenyl)-4-oxo-1H-quinoline-3-carboxamide]: the half-maximal effective concentration (EC50) was less than 10 µM and the “% Activity” value is recorded as “++ (between 25% to 100%)”.

As for `CC(C)(CO)c1ccc(NC(=O)c2c[nH]c3ccccc3c2=O)cc1` [Compound 5, N-[4-(2-hydroxy-1,1-dimethyl-ethyl)phenyl]-4-oxo-1H-quinoline-3-carboxamide], the EC50 was 10 to 25 µM and the “% Activity” value is given as “++ (between 25% to 100%)”.

Regarding `CC(C)(C)c1ccc(NC(=O)c2c[nH]c3ccccc3c2=O)cc1CO` [Compound 6, N-[3-(hydroxymethyl)-4-tert-butyl-phenyl]-4-oxo-1H-quinoline-3-carboxamide], the EC50 is less than 10 µM and the “% Activity” value was “+++ (>100%)”.

Turning to `CCOc1cc(NC(=O)c2c[nH]c3ccccc3c2=O)c(OCC)cc1NC(=O)c1ccccc1` [Compound 7, N-(4-benzoylamino-2,5-diethoxy-phenyl)-4-oxo-1H-quinoline-3-carboxamide], the EC50 lay within 25 to 60 µM and the “% Activity” value is given as “+ (<25%)”.

As for `CCc1ccc(NC(=O)c2c[nH]c3ccccc3c2=O)cc1N` [Compound 8, N-(3-amino-4-ethyl-phenyl)-4-oxo-1H-quinoline-3-carboxamide], the EC50 was less than 10 µM and the “% Activity” value is “++ (between 25% to 100%)”.

For `NS(=O)(=O)c1cccc(NC(=O)c2c[nH]c3ccccc3c2=O)c1` [Compound 9, 4-oxo-N-(3-sulfamoylphenyl)-1H-quinoline-3-carboxamide], the EC50 was in the range of 25 to 60 µM and the “% Activity” value was “+ (<25%)”.

As for `O=C(Nc1ccc2c(c1)NCCCC2)c1c[nH]c2ccccc2c1=O` [Compound 10, 1,4-dihydro-N-(2,3,4,5-tetrahydro-1H-benzo[b]azepin-8-yl)-4-oxoquinoline-3-carboxamide], the EC50 is less than 10 µM and the “% Activity” value is given as “++ (between 25% to 100%)”.

Regarding `O=C(Nc1ccccc1-c1ccccc1C(F)(F)F)c1c[nH]c2ccccc2c1=O` [Compound 11, 4-oxo-N-[2-[2-(trifluoromethyl)phenyl]phenyl]-1H-quinoline-3-carboxamide], the concentration giving a half-maximal response (EC50) is less than 10 µM and the “% Activity” value is “++ (between 25% to 100%)”.

`CN(C)c1ccc(-c2ccccc2NC(=O)c2c[nH]c3ccccc3c2=O)cc1` [Compound 12, N-[2-(4-dimethylaminophenyl)phenyl]-4-oxo-1H-quinoline-3-carboxamide]: the concentration giving a half-maximal response (EC50) was less than 10 µM and the “% Activity” value is given as “++ (between 25% to 100%)”.

Regarding `CC(C)(C)c1ccc(NC(=O)c2c[nH]c3ccccc3c2=O)cc1C#N` [Compound 13, N-(3-cyano-4-tert-butyl-phenyl)-4-oxo-1H-quinoline-3-carboxamide], the EC50 is less than 10 µM and the “% Activity” value is “++ (between 25% to 100%)”.

As for `COC(=O)Nc1cc(NC(=O)c2c[nH]c3ccccc3c2=O)ccc1C(C)(C)C` [Compound 14, [5-[(4-oxo-1H-quinolin-3-yl)carbonylamino]-2-tert-butyl-phenyl]aminoformic acid methyl ester], the EC50 is less than 10 µM and the “% Activity” value is recorded as “++ (between 25% to 100%)”.

As to `COc1ncccc1NC(=O)c1c[nH]c2ccccc2c1=O` [Compound 15, N-(2-methoxy-3-pyridyl)-4-oxo-1H-quinoline-3-carboxamide], the 50% effective concentration (EC50) is 10 to 25 µM and the “% Activity” value was “++ (between 25% to 100%)”.

`CCCc1ccccc1NC(=O)c1c[nH]c2ccccc2c1=O` [Compound 16, 4-oxo-N-(2-propylphenyl)-1H-quinoline-3-carboxamide]: the half-maximal effective concentration (EC50) was less than 10 µM and the “% Activity” value is “++ (between 25% to 100%)”.

Consider `CCCOc1ccc(N)cc1NC(=O)c1c[nH]c2ccccc2c1=O` [Compound 17, N-(5-Amino-2-propoxy-phenyl)-4-oxo-1H-quinoline-3-carboxamide], for which the concentration giving a half-maximal response (EC50) was less than 10 µM and the “% Activity” value is recorded as “++ (between 25% to 100%)”.

For the compound `O=C(Nc1cccc2c1Cc1ccccc1-2)c1c[nH]c2ccccc2c1=O` [Compound 18, N-(9H-fluoren-1-yl)-4-oxo-1H-quinoline-3-carboxamide], the half-maximal effective concentration (EC50) is less than 10 µM and the “% Activity” value is recorded as “++ (between 25% to 100%)”.

Regarding `O=C(Nc1ccc2ccccc2n1)c1c[nH]c2ccccc2c1=O` [Compound 19, 4-oxo-N-(2-quinolyl)-1H-quinoline-3-carboxamide], the concentration giving a half-maximal response (EC50) was in the range of 10 to 25 µM and the “% Activity” value is “+ (<25%)”.

As to `Cc1ccccc1Oc1ccccc1NC(=O)c1c[nH]c2ccccc2c1=O` [Compound 20, N-[2-(2-methylphenoxy)phenyl]-4-oxo-1H-quinoline-3-carboxamide], the EC50 was less than 10 µM and the “% Activity” value is “++ (between 25% to 100%)”.

For the compound `O=C(Nc1ccc(S(=O)(=O)Nc2ccccn2)cc1)c1c[nH]c2ccccc2c1=O` [Compound 21, 4-oxo-N-[4-(2-pyridylsulfamoyl)phenyl]-1H-quinoline-3-carboxamide], the concentration giving a half-maximal response (EC50) was in the range of 25 to 60 µM and the “% Activity” value is reported as “+ (<25%)”.

For the compound `O=C(Nc1ccc2c(c1)NCC21CC1)c1c[nH]c2ccccc2c1=O` [Compound 22, 4-Oxo-1,4-dihydro-quinoline-3-carboxylic acid N-(1′,2′-dihydrospiro[cyclopropane-1,3′-[3H]indol]-6′-yl)-amide], the 50% effective concentration (EC50) lay in the range of 10 to 25 µM and the “% Activity” value is recorded as “++ (between 25% to 100%)”.

Take `CCOc1ccccc1-c1cc(C(C)(C)C)c(O)cc1NC(=O)c1c[nH]c2ccccc2c1=O` [Compound 23, N-[2-(2-ethoxyphenyl)-5-hydroxy-4-tert-butyl-phenyl]-4-oxo-1H-quinoline-3-carboxamide]: the EC50 is less than 10 µM and the “% Activity” value is “++ (between 25% to 100%)”.

Turning to `O=C(Nc1cccc(S(=O)(=O)N2CCCC2)c1)c1c[nH]c2ccccc2c1=O` [Compound 24, 4-oxo-N-(3-pyrrolidin-1-ylsulfonylphenyl)-1H-quinoline-3-carboxamide], the EC50 was in the range of 25 to 60 µM and the “% Activity” value is “+ (<25%)”.

Take `CC(=O)Nc1cccc(-c2ccccc2NC(=O)c2c[nH]c3ccccc3c2=O)c1` [Compound 25, N-[2-(3-acetylaminophenyl)phenyl]-4-oxo-1H-quinoline-3-carboxamide]: the “% Activity” value is reported as “++ (between 25% to 100%)”.

Take `O=C(Nc1ccccc1N1CCCCC1)c1c[nH]c2ccccc2c1=O` [Compound 26, 4-oxo-N-[2-(1-piperidyl)phenyl]-1H-quinoline-3-carboxamide]: the half-maximal effective concentration (EC50) is less than 10 µM and the “% Activity” value is on record as “++ (between 25% to 100%)”.

For the compound `COCCOC(=O)NCC(C)(C)c1ccc(NC(=O)c2c[nH]c3ccccc3c2=O)cc1` [Compound 28, [2-methyl-2-[4-[(4-oxo-1H-quinolin-3-yl)carbonylamino]phenyl]-propyl]aminoformic acid 2-methoxyethyl ester], the EC50 was 10 to 25 µM and the “% Activity” value is on record as “++ (between 25% to 100%)”.

Regarding `CC(C)n1cc(C(=O)Nc2ccccc2)c(=O)c2ccccc21` [Compound 29, 1-isopropyl-4-oxo-N-phenyl-1H-quinoline-3-carboxamide], the EC50 was in the range of 10 to 25 µM and the “% Activity” value is recorded as “++ (between 25% to 100%)”.

In the case of `COC(=O)Nc1cc(NC(=O)c2c[nH]c3ccccc3c2=O)ccc1C(C)C` [Compound 30, [2-isopropyl-5-[(4-oxo-1H-quinolin-3-yl)carbonylamino]phenyl]aminoformic acid methyl ester], the EC50 was less than 10 µM and the “% Activity” value is recorded as “++ (between 25% to 100%)”.
